Reference: patent US20050014699A1, “Combinations of enzyme inhibitor-containing preparations and the use thereof” (priority 2000, published 2005)

Key:
Type in all cases: cell-based
[1] = tested on: human peripheric T lymphocytes; test: DNA synthesis of human peripheric T lymphocytes, 3[H]-thymidine incorporation; conditions: 72 h incubation
Procedure: The T cells were incubated for 72 h in the presence of said inhibitors and subsequently, the DNA synthesis rate was determined via a measurement of the ^3[H]-thymidin incorporation, as was described by Reinhold et al. [D. Reinhold et al,: “Inhibitors of dipeptidyl peptidase IV induce secretion of transforming growth factor β1 in PWM-stimulated PBMNC and T cells”, Immunology 1997, 91, 354-360].
Human peripheric T cells were incubated over 3 days with the concentrations of the inhibitors shown. Subsequently, ^3[H]-methyl thymidine was added to the culture medium, and the amount of ^3[H]-thymidine inserted into the DNA was measured after further 6 hours.
The T cells were incubated for 72 h in the presence of said inhibitors, and the DNA synthesis rate was determined subsequently by the measurement of the ^3[H]-thymidine incorporation, as was described by Reinhold et al. [D. Reinhold et al.: “Inhibitors of dipeptidyl peptidase IV induce secretion of transforming growth factor β1 in PWM-stimulated PBMNC and T cells”, Immunology 1997, 91, 354-360].
FIG. 3 show a the synergistic and dose-dependent effect of inhibitors of DP IV (I49) and of prolyl oligopeptidase (Boc-Ala-Thia) on the DNA synthesis of human peripheric T lymphocytes. Human T cells were incubated for three days with the concentrations of inhibitors mentioned above. Subsequently, ^3[H]-methyl thymidine was added to the culture medium, and the amount of ^3[H]-thymidine incorporated into the DNA was measured after further 6 hours.
Human T cells were incubated for three days with the concentrations of inhibitors mentioned above. Subsequently, ^3[H]-methyl thymidine was added to the culture medium, and the amount of ^3[H]-thymidine incorporated into the DNA was measured after further 6 hours.

[2] = tested on: human peripheric mononuclear cells (MNZ); test: DNA synthesis of human peripheric mononuclear cells (MNZ), 3[H]-thymidine incorporation; conditions: 72 h incubation
Procedure: The MNZ were incubated for 72 h in the presence of said inhibitors, and the DNA synthesis rate was determined subsequently by the measurement of the ^3[H]-thymidine incorporation, as was described by Reinhold et al. [D. Reinhold et al.: “Inhibitors of dipeptidyl peptidase IV induce secretion of transforming growth factor β1 in PWM-stimulated PBMNC and T cells”, Immunology 1997, 91, 354-360].
Human MNZ were incubated for three days with the concentrations of inhibitors mentioned above. Subsequently, ^3[H]-methyl thymidine was added to the culture medium, and the amount of ^3[H]-thymidine incorporated into the DNA was measured after further 6 hours.
The MNZ were incubated for 72 h in the presence of said inhibitors, and the DNA synthesis rate was determined subsequently by the measurement of the ^3[H]-thymidine incorporation, as was described by Reinhold et al. [D. Reinhold et al.; “Inhibitors of dipeptidyl peptidase IV induce secretion of transforming growth factor β1 in PWM-stimulated PBMNC and T cells”, Immunology 1997, 91, 354-360].

[3] = tested on: PHA-activated human mononuclear cells (MNZ); test: WST-1 cell proliferation assay, PHA-activated human mononuclear cells (MNZ)
Procedure: FIG. 7: The MNZ were incubated for a time period of 72 h without addition (control), with an addition of the mitogenic lectin phytohemagglutinin (PHA), and with the addition of PHA and the inhibitors mentioned above, respectively. Subsequently, the number amount of metabolically active cells was determined by using the commercially available WST-1 cell proliferation assay (Takara Inc.) in accordance with the provisions of the manufacturer.
FIG. 10: The mononuclear cells (MNZ) were incubated for a time period of 72 h in the presence of the inhibitors mentioned above single and in combination. Subsequently, the number of metabolically active cells was determined by using the commercially available WST-1 cell proliferation assay (Takara Inc.) in accordance with the provisions of the manufacturer.

[4] = tested on: human T cell line KARPAS-299; test: WST-1 cell proliferation assay, KARPAS-299 cells; conditions: single and simultaneous administration of I49 and APN inhibitors Actinonin and Probestin (FIG. 8)
Procedure: FIG. 8: The KARPAS-299 cells were incubated without addition (control) and in the presence of single inhibitors mentioned above as well as in the presence of combinations thereof, respectively. Subsequently, the number of metabolically active cells was determined by using the commercially available WST-1 cell proliferation assay (Takara Inc.) in accordance with the provisions of the manufacturer.

[5] = tested on: activated human peripheric T cells; test: WST-1 cell proliferation assay, activated human peripheric T cells; conditions: single or simultaneous administration of I49 and APN inhibitors Actinonin and Probestin; activation by phytohemagglutinine and phorbol-12-myristate-13-acetate; 72 h (FIG. 9)
Procedure: FIG. 9: The T cells, with the exception of the untreated control, were activated by an addition of phytohemagglutinine and phorbol-12-myristate-13-acetate to the culture medium and were incubated for a time period of 72 h in the presence of the above-mentioned inhibitors single and in combination. Subsequently, the number of metabolically active cells was determined by using the commercially available WST-1 cell proliferation assay (Takara Inc.) in accordance with the provisions of the manufacturer.

[6] = simultaneous administration of DP IV inhibitor I49 and APN inhibitor Actinonin, dose-dependent (FIG. 1)
[7] = simultaneous administration of DP IV inhibitor I49 and APN inhibitor actinonine, dose-dependent (FIG. 2)
[8] = single and simultaneous administration of I49 and Actinonin, PHA, 72 h (FIG. 7)
[9] = simultaneous administration of DP IV inhibitor I49 and prolyl oligopeptidase inhibitor Boc-Ala-thiazolidid, dose-dependent (FIG. 3)
[10] = simultaneous administration of DP IV inhibitor I49 and prolyl oligopeptidase inhibitor Boc-Ala-Thiazolidid, dose-dependent (FIG. 4)
[11] = single or simultaneous administration of I49 and APP inhibitor Apstatin, PHA-activated, 72 h (FIG. 10)
[12] = simultaneous administration of DP IV inhibitor I49 and ACE inhibitor Captopril, dose-dependent (FIG. 5)
[13] = simultaneous administration of DP IV inhibitor I49 and ACE inhibitor Captopril, dose-dependent (FIG. 6)

Row | SMILES | inhibition of DNA synthesis [1, 6] | inhibition of DNA synthesis [2, 7] | inhibition of proliferation (number of metabolically active cells) [3, 8] | inhibition of proliferation (number of metabolically active cells) [4] | inhibition of proliferation (number of metabolically active cells) [5] | inhibition of DNA synthesis [1, 9] | inhibition of DNA synthesis [2, 10] | inhibition of proliferation (number of metabolically active cells) [3, 11] | inhibition of DNA synthesis [1, 12] | inhibition of DNA synthesis [2, 13]
1 | CCCCC[C@H](CC(=O)NO)C(=O)N[C@H](C(=O)N1CCC[C@H]1CO)C(C)C [Actinonin] | inhibited in a superadditive manner | inhibited in a superadditive manner | Inhibition of the Proliferation | Inhibition of the Proliferation | Inhibition of the Proliferation |  |  |  |  | 
2 | CC(NC(=O)OC(C)(C)C)C(=O)N1CCSC1 (stereo not drawn) [Boc-Ala-thiazolidid] |  |  |  |  |  | inhibited in a superadditive manner | inhibited in a superadditive manner |  |  | 
3 | CC(C)C[C@H](NC(=O)[C@@H](O)[C@H](N)Cc1ccccc1)C(=O)N1CCC[C@H]1C(=O)N1CCC[C@H]1C(=O)O [Probestin] |  |  |  | Inhibition of the Proliferation | Inhibition of the Proliferation |  |  |  |  | 
4 | C[C@H](NC(=O)[C@@H]1CCCN1C(=O)[C@@H]1CCCN1C(=O)[C@@H](O)[C@H](N)Cc1ccccc1)C(N)=O [Apstatin] |  |  |  |  |  |  |  | Inhibition of the Proliferation |  | 
5 | NC(CCCCNC(=O)OCc1ccc([N+](=O)[O-])cc1)C(=O)N1CCSC1 (stereo not shown) [I49, Lys[Z(NO2)]-thiazolidid] | inhibited in a superadditive manner | inhibited in a superadditive manner | Inhibition of the Proliferation | Inhibition of the Proliferation | Inhibition of the Proliferation | inhibited in a superadditive manner | inhibited in a superadditive manner | Inhibition of the Proliferation | inhibited in a superadditive manner | inhibited in a superadditive manner
6 | C[C@H](CS)C(=O)N1CCC[C@H]1C(=O)O [Captopril] |  |  |  |  |  |  |  |  | inhibited in a superadditive manner | inhibited in a superadditive manner
